Measurements: ChEMBL document CHEMBL3044670, “Aromatic sulfonyl hydrazides and sulfonyl hydrazones: antimicrobial activity and physical properties” (2013)
Converted amounts (≈) assume the structure as drawn.

What was measured:
Assay type in all cases: functional
Klebsiella pneumoniae [1] = assay: Antibacterial activity against Klebsiella pneumoniae ATCC 13883 at 30 ug/disk after 18 to 24 hr by disk diffusion method
Candida albicans [2] = assay: Antifungal activity against Candida albicans ATCC 90028 after 18 to 24 hr by broth microdilution method
Candida albicans [3] = assay: Antifungal activity against Candida albicans ATCC 90028 at 30 ug/disk after 18 to 24 hr by disk diffusion method
Enterococcus faecalis [4] = assay: Antibacterial activity against Enterococcus faecalis ATCC 29212 at 30 ug/disk after 18 to 24 hr by disk diffusion method
Pseudomonas fluorescens [5] = assay: Antibacterial activity against Pseudomonas fluorescens ATCC 49838 at 30 ug/disk after 18 to 24 hr by disk diffusion method
Pseudomonas aeruginosa [6] = assay: Antibacterial activity against Pseudomonas aeruginosa ATCC 27853 at 30 ug/disk after 18 to 24 hr by disk diffusion method
Bacillus subtilis [7] = assay: Antibacterial activity against Bacillus subtilis ATCC 6633 at 30 ug/disk after 18 to 24 hr by disk diffusion method
Klebsiella aerogenes [8] = assay: Antibacterial activity against Enterobacter aerogenes ATCC 13048 at 30 ug/disk after 18 to 24 hr by disk diffusion method
Bacillus cereus [9] = assay: Antibacterial activity against Bacillus cereus ATCC 11778 at 30 ug/disk after 18 to 24 hr by disk diffusion method
Staphylococcus aureus [10] = assay: Antibacterial activity against Staphylococcus aureus ATCC 25923 at 30 ug/disk after 18 to 24 hr by disk diffusion method
[11] = system: Staphylococcus epidermidis; assay: Antibacterial activity against Staphylococcus epidermidis ATCC 12228 at 30 ug/disk after 18 to 24 hr by disk diffusion method
Escherichia coli [12] = assay: Antibacterial activity against Escherichia coli ATCC 25922 at 30 ug/disk after 18 to 24 hr by disk diffusion method
Bacillus cereus [13] = assay: Antibacterial activity against Bacillus cereus ATCC 11778 after 18 to 24 hr by broth microdilution method
[14] = system: Staphylococcus epidermidis; assay: Antibacterial activity against Staphylococcus epidermidis ATCC 12228 after 18 to 24 hr by broth microdilution method
Staphylococcus aureus [15] = assay: Antibacterial activity against Staphylococcus aureus ATCC 25923 at 140 ug/disc after 18 to 24 hr by disk diffusion method; settings: read-out: DIZ
Bacillus cereus [16] = assay: Antibacterial activity against Bacillus cereus ATCC 11778 at 140 ug/disk after 18 to 24 hr by disk diffusion method; settings: read-out: DIZ
Pseudomonas fluorescens [17] = assay: Antibacterial activity against Pseudomonas fluorescens ATCC 49838 after 18 to 24 hr by broth microdilution method
Pseudomonas aeruginosa [18] = assay: Antibacterial activity against Pseudomonas aeruginosa ATCC 27853 at 140 ug/disk after 18 to 24 hr by disk diffusion method; settings: read-out: DIZ
Bacillus subtilis [19] = assay: Antibacterial activity against Bacillus subtilis ATCC 6633 at 140 ug/disk after 18 to 24 hr by disk diffusion method; settings: read-out: DIZ
Pseudomonas fluorescens [20] = assay: Antibacterial activity against Pseudomonas fluorescens ATCC 49838 at 140 ug/disk after 18 to 24 hr by disk diffusion method; settings: read-out: DIZ
[21] = system: Staphylococcus epidermidis; assay: Antibacterial activity against Staphylococcus epidermidis ATCC 12228 at 140 ug/disk after 18 to 24 hr by disk diffusion method; settings: read-out: DIZ
Enterococcus faecalis [22] = assay: Antibacterial activity against Enterococcus faecalis ATCC 29212 after 18 to 24 hr by broth microdilution method
Klebsiella pneumoniae [23] = assay: Antibacterial activity against Klebsiella pneumoniae ATCC 13883 after 18 to 24 hr by broth microdilution method
Escherichia coli [24] = assay: Antibacterial activity against Escherichia coli ATCC 25922 after 18 to 24 hr by broth microdilution method
Candida albicans [25] = assay: Antifungal activity against Candida albicans ATCC 90028 at 140 ug/disk after 18 to 24 hr by disk diffusion method; settings: read-out: DIZ
Klebsiella aerogenes [26] = assay: Antibacterial activity against Enterobacter aerogenes ATCC 13048 after 18 to 24 hr by broth microdilution method
Bacillus subtilis [27] = assay: Antibacterial activity against Bacillus subtilis ATCC 6633 after 18 to 24 hr by broth microdilution method
Pseudomonas aeruginosa [28] = assay: Antibacterial activity against Pseudomonas aeruginosa ATCC 27853 after 18 to 24 hr by broth microdilution method
Klebsiella aerogenes [29] = assay: Antibacterial activity against Enterobacter aerogenes ATCC 13048 at 140 ug/disk after 18 to 24 hr by disk diffusion method; settings: read-out: DIZ
Enterococcus faecalis [30] = assay: Antibacterial activity against Enterococcus faecalis ATCC 29212 at 140 ug/disk after 18 to 24 hr by disk diffusion method; settings: read-out: DIZ
Staphylococcus aureus [31] = assay: Antibacterial activity against Staphylococcus aureus ATCC 25923 after 18 to 24 hr by broth microdilution method
Escherichia coli [32] = assay: Antibacterial activity against Escherichia coli ATCC 25922 at 140 ug/disk after 18 to 24 hr by disk diffusion method; settings: read-out: DIZ
Klebsiella pneumoniae [33] = assay: Antibacterial activity against Klebsiella pneumoniae ATCC 13883 at 140 ug/disk after 18 to 24 hr by disk diffusion method; settings: read-out: DIZ

Molecule | MIC (Candida albicans [2]) [µg/mL] | MIC (Bacillus cereus [13]) [µg/mL] | MIC [14] [µg/mL] | zone of inhibition at 140 µg/disc (Staphylococcus aureus [15]) [mm] | zone of inhibition at 140 µg/disc (Bacillus cereus [16]) [mm] | MIC (Pseudomonas fluorescens [17]) [µg/mL] | zone of inhibition at 140 µg/disc (Pseudomonas aeruginosa [18]) [mm] | zone of inhibition at 140 µg/disc (Bacillus subtilis [19]) [mm] | zone of inhibition at 140 µg/disc (Pseudomonas fluorescens [20]) [mm] | zone of inhibition at 140 µg/disc [21] [mm] | MIC (Enterococcus faecalis [22]) [µg/mL] | MIC (Klebsiella pneumoniae [23]) [µg/mL] | MIC (Escherichia coli [24]) [µg/mL] | zone of inhibition at 140 µg/disc (Candida albicans [25]) [mm] | MIC (Klebsiella aerogenes [26]) [µg/mL] | MIC (Bacillus subtilis [27]) [µg/mL] | MIC (Pseudomonas aeruginosa [28]) [µg/mL] | zone of inhibition at 140 µg/disc (Klebsiella aerogenes [29]) [mm] | zone of inhibition at 140 µg/disc (Enterococcus faecalis [30]) [mm] | MIC (Staphylococcus aureus [31]) [µg/mL] | also measured
NYSTATIN | 0.125 | – | – | – | – | – | – | – | – | – | – | – | – | – | – | – | – | – | – | – | inhibition zone (IZ) (Klebsiella pneumoniae [1]): 0 mm; inhibition zone (IZ) (Candida albicans [3]): 18 mm; inhibition zone (IZ) (Enterococcus faecalis [4]): 0 mm; inhibition zone (IZ) (Pseudomonas fluorescens [5]): 0 mm; inhibition zone (IZ) (Pseudomonas aeruginosa [6]): 0 mm; inhibition zone (IZ) (Bacillus subtilis [7]): 0 mm; inhibition zone (IZ) (Klebsiella aerogenes [8]): 0 mm; inhibition zone (IZ) (Bacillus cereus [9]): 0 mm; inhibition zone (IZ) (Staphylococcus aureus [10]): 0 mm; inhibition zone (IZ) [11]: 0 mm; inhibition zone (IZ) (Escherichia coli [12]): 0 mm
NCC(O)CNS(=O)(=O)c1ccccc1 (configuration not stated) | 1000 (≈ 4.34 mM) | > 2000 | > 2000 | 0 | 0 | 1000 (≈ 4.34 mM) | 0 | 0 | 0 | 0 | > 2000 | > 2000 | 1000 (≈ 4.34 mM) | 0 | 1000 (≈ 4.34 mM) | > 2000 | 1000 (≈ 4.34 mM) | 0 | 0 | > 2000 | zone of inhibition at 140 µg/disc (Escherichia coli [32]): 0 mm; zone of inhibition at 140 µg/disc (Klebsiella pneumoniae [33]): 0 mm
CN(C)[C@@H]1C(O)=C(C(N)=O)C(=O)[C@@]2(O)C(O)=C3C(=O)c4c(O)cccc4[C@@](C)(O)[C@H]3C[C@@H]12 [TETRACYCLINE] | – | – | 0.125 (≈ 0.000281 mM) | – | – | 0.125 (≈ 0.000281 mM) | – | – | – | – | 0.625 (≈ 0.00141 mM) | 0.15 (≈ 0.000338 mM) | 0.075 (≈ 0.000169 mM) | – | 0.15 (≈ 0.000338 mM) | 0.075 (≈ 0.000169 mM) | 0.125 (≈ 0.000281 mM) | – | – | – | zone of inhibition at 30 µg/disc (Klebsiella pneumoniae [1]; read-out: DIZ): 12 mm; zone of inhibition at 30 µg/disc (Candida albicans [3]; read-out: DIZ): 0 mm; zone of inhibition at 30 µg/disc (Enterococcus faecalis [4]; read-out: DIZ): 0 mm; zone of inhibition at 30 µg/disc (Pseudomonas fluorescens [5]; read-out: DIZ): 19 mm; zone of inhibition at 30 µg/disc (Pseudomonas aeruginosa [6]; read-out: DIZ): 23 mm; zone of inhibition at 30 µg/disc (Bacillus subtilis [7]; read-out: DIZ): 26 mm; zone of inhibition at 30 µg/disc (Klebsiella aerogenes [8]; read-out: DIZ): 0 mm; zone of inhibition at 30 µg/disc (Bacillus cereus [9]; read-out: DIZ): 19 mm; zone of inhibition at 30 µg/disc (Staphylococcus aureus [10]; read-out: DIZ): 0 mm; zone of inhibition at 30 µg/disc ([11]; read-out: DIZ): 19 mm; zone of inhibition at 30 µg/disc (Escherichia coli [12]; read-out: DIZ): 23 mm
O=S(=O)(NCCO)c1ccccc1 | 1000 (≈ 4.97 mM) | > 2000 | > 2000 | 0 | 0 | 1000 (≈ 4.97 mM) | 0 | 0 | 0 | 0 | > 2000 | 1000 (≈ 4.97 mM) | 1000 (≈ 4.97 mM) | 0 | 1000 (≈ 4.97 mM) | 1000 (≈ 4.97 mM) | 1000 (≈ 4.97 mM) | 0 | 0 | > 2000 | zone of inhibition at 140 µg/disc (Escherichia coli [32]): 0 mm; zone of inhibition at 140 µg/disc (Klebsiella pneumoniae [33]): 0 mm
CN(/N=C/c1cccs1)S(=O)(=O)c1ccccc1 | 1000 (≈ 3.57 mM) | 250 (≈ 0.892 mM) | 125 (≈ 0.446 mM) | 12 | 25 | 125 (≈ 0.446 mM) | 24 | 24 | 25 | 15 | 1000 (≈ 3.57 mM) | 125 (≈ 0.446 mM) | 125 (≈ 0.446 mM) | 0 | 250 (≈ 0.892 mM) | 125 (≈ 0.446 mM) | 125 (≈ 0.446 mM) | 17 | 0 | 250 (≈ 0.892 mM) | zone of inhibition at 140 µg/disc (Escherichia coli [32]): 17 mm; zone of inhibition at 140 µg/disc (Klebsiella pneumoniae [33]): 21 mm
